In paper PMC9834766, “Low-molecular-weight anti-HIV-1 agents targeting HIV-1 capsid proteins” (RSC Advances, 2023):
pEC50: −log10 of the molar value. Read-outs that look alike come from different tables or passages of the source.

Assays:
HIV-1 (NL4-3 strain) = test: Protection against HIV-1 (NL4-3 strain)-induced cytopathogenicity in MT-4 cells, MTT assay; assay type: cell-based; conditions: 50% protection from HIV-1 (NL4-3 strain)-induced cytopathogenicity in MT-4 cells
Protocol: (§1) The anti-HIV activity of the synthesized compounds was assessed based on their protection against HIV-1 (NL4-3 strain)-induced cytopathogenicity in MT-4 cells using an MTT assay.[29–33] The cytotoxicity of these compounds was determined based on reduction of the viability of MT-4 cells, as determined by an MTT assay. […] MKN-3 (2) was designed by in silico screening in the same way as MKN-1 (1), and in terms of ligand efficacy MKN-3 (2), with a London dG value of −9.555, has a higher binding affinity than MKN-1 (1), with a London dG value of −9.134, for a CA molecule. The anti-HIV activity of MKN-3 (2) however, is remarkably lower than that of MKN-1 (1). The reason for this might be the poor cell membrane permeability of MKN-3 (2), which therefore could not penetrate the cells. In general, the hydrophobicity of compounds is correlated to their cell membrane permeability. […] We investigated the design of derivatives more hydrophobic than MKN-3 (2). For the design of MKN-3 (2) derivatives, the docking model of MKN-3 (2) and a CA protein was constructed, and a site in the MKN-3 (2) molecule, whose relationship with the interaction with a CA protein is unknown, was sought (Fig. 3). […] Consequently, this amino group was modified by alkylation or amidation, and was converted into a methylene group. Six derivatives (17, 18, 19, TKB063 (25), 26 and 27), with octanoyl, 2-propylpentanoyl, 2-phenylacetyl, i-propyl, n-heptyl or benzyl groups, respectively on the secondary nitrogen atom of the homopiperazine ring of MKN-3 (2), were synthesized. A derivative (29), with a methylene group in place of the secondary amine of the homopiperazine ring, was prepared. […] It was assumed that the anti-HIV activity of these MKN-3 (2) derivatives was increased as a result of their improved hydrophobicity and cell membrane permeability. If the hydrophobicity of such derivatives is higher (log P > 2), the cytotoxicity is higher (CC50 < 10 μM). […] Thus, TKB063 (25) can be seen to have some advantages.
For virus preparation, 293T/17 cells (Invitrogen) maintained in Dulbecco's modified Eagle medium (DMEM) containing 10% FBS, in a T-75 flask were transfected with 10 μg of the pNL4-3 construct by the calcium phosphate method. The supernatant was collected 48 h after transfection, passed through a 0.45 μm filter, and stored at −80 °C as a stock virus.
(§2) The inhibitory activity of test compounds against X4-HIV-1 (NL4-3 strain)-induced cytopathogenicity in MT-4 cells,[83] which are maintained in RPMI-1640 containing 10% FBS, was assessed by an MTT assay. Various concentrations of test compound solutions were added to HIV-1-infected MT-4 cells at multiplicity of infection (MOI) of 0.001, and placed in wells of a 96-well microplate. The test compounds and the reference compounds, e.g. AZT, were diluted by factors of two or five, respectively. After 5 days' incubation at 37 °C in a CO2 incubator, the number of viable cells was determined by the MTT assay. Cytotoxicities of the test compounds were determined based on reduction of the viability of MT-4 cells measured in the MTT assay. A reverse transcriptase inhibitor, AZT, was purchased from Sigma Aldrich and employed as a positive control compound with anti-HIV activity.

HIV = conditions: cited from earlier work
[1] = Cytotoxicity: reduction of the viability of MT-4 cells, MTT assay; assay type: cell-based; conditions: human
Protocol: as §1, §2

MT-4 cells = test: as above; assay type: cell-based; conditions: Table 3; 50% reduction of the viability of MT-4 cells
Protocol: as §1, §2

[2] = Table 2, 50% reduction of the viability of MT-4 cells, read-out: CC50
[3] = Human immunodeficiency virus 1, NL43, MT4, Table 2
[4] = Human immunodeficiency virus 1, NL43, MT4, Table 3
[5] = Human immunodeficiency virus 1, NL43, MT4, Table 4
[6] = Table 4, 50% reduction of the viability of MT-4 cells, read-out: CC50

Cc1cn([C@H]2C[C@H](N=[N+]=[N-])[C@@H](CO)O2)c(=O)[nH]c1=O [AZT, reference compound]
pEC50 (HIV-1 (NL4-3 strain); Table 2): 7.68
pEC50 (HIV-1 (NL4-3 strain); Table 3): 7.60
pEC50 (HIV-1 (NL4-3 strain); Table 4): 7.40

C[C@H]1CO[C@@H]2Cn3cc(C(=O)NCc4ccc(F)cc4F)c(=O)c(O)c3C(=O)N12 [Cabotegravir]
IC50/EC50 (HIV; Integrase inhibitor, ref [70]): 0.00025 µM

CCCCCCCC(=O)N1CCCN([C@H](CCSC)C(=O)N2CCNCC2c2c[nH]c3ccccc23)CC1 (stereo partly drawn) [Compound 17]
CC50 at 5 days [1, 2]: 8.8 µM
pEC50 (HIV-1 (NL4-3 strain); [3]): 5.22

CCCC(CCC)C(=O)N1CCCN([C@H](CCSC)C(=O)N2CCNCC2c2c[nH]c3ccccc23)CC1 (stereo partly drawn) [Compound 18]
CC50 at 5 days [1, 2]: 9.1 µM
pEC50 (HIV-1 (NL4-3 strain); [3]): < 5.04

CSCC[C@H](C(=O)N1CCNCC1c1c[nH]c2ccccc12)N1CCCN(C(=O)Cc2ccccc2)CC1 (stereo partly drawn) [Compound 19]
CC50 at 5 days [1]: 33 µM
pEC50 (HIV-1 (NL4-3 strain); [3]): 4.82

CCCCCCCN1CCCN([C@H](CCSC)C(=O)N2CCNCC2c2c[nH]c3ccccc23)CC1 (stereo partly drawn) [Compound 26]
CC50 at 5 days [1, 2]: 4.4 µM
pEC50 (HIV-1 (NL4-3 strain); [3]): 5.59

CSCC[C@H](C(=O)N1CCNCC1c1c[nH]c2ccccc12)N1CCCN(Cc2ccccc2)CC1 (stereo partly drawn) [Compound 27]
CC50 at 5 days [1, 2]: 9 µM
pEC50 (HIV-1 (NL4-3 strain); [3]): 5.62

CSCC[C@H](C(=O)N1CCNCC1c1c[nH]c2ccccc12)N1CCCCCC1 (stereo partly drawn) [Compound 29]
CC50 at 5 days [1, 2]: 32 µM
pEC50 (HIV-1 (NL4-3 strain); [3]): 5.00

COc1cnc(-n2cnc(C)n2)c2c1c(C(=O)C(=O)N1CCN(C(=O)c3ccccc3)CC1)cn2COP(=O)(O)O [Fostemsavir]
IC50/EC50 (HIV; Entry inhibitor, ref [67]): 0.0007 µM

C=C(C)[C@@H]1CC[C@]2(NCCN3CCS(=O)(=O)CC3)CC[C@]3(C)[C@H](CC[C@@H]4[C@@]5(C)CC=C(C6=CC[C@@](CF)(C(=O)O)CC6)C(C)(C)[C@@H]5CC[C@]43C)[C@@H]12 [GSK3640254]
IC90/EC90 (HIV; Maturation inhibitor, ref [69]): (33 nM)

CC(C)(C#Cc1ccc(-c2ccc(Cl)c3c(NS(C)(=O)=O)nn(CC(F)(F)F)c23)c([C@H](Cc2cc(F)cc(F)c2)NC(=O)Cn2nc(C(F)(F)F)c3c2C(F)(F)[C@@H]2C[C@H]32)n1)S(C)(=O)=O [Lenacapavir]
IC50/EC50 (HIV; Capsid inhibitor, ref [71]): 0.0001 µM

CSCC[C@H](C)OC(=O)[C@@H](N)c1ccccc1-c1c[nH]c2ccccc12 [MKN-1 (1), reference compound]
CC50 at 5 days [1, 2]: 15 µM
pEC50 (HIV-1 (NL4-3 strain); [3]): 5.66
pEC50 (HIV-1 (NL4-3 strain); [4]): 5.64

CSCCC(C(=O)N1CCNCC1c1c[nH]c2ccccc12)N1CCCNCC1 (stereo not drawn) [MKN-3 (2)]
CC50 at 5 days [1, 2]: > 50 µM
pEC50 (HIV-1 (NL4-3 strain); [3]): 4.38
pEC50 (HIV-1 (NL4-3 strain); [4]): < 4.30

CSCC[C@H](C(=O)N1CCNCC1c1c[nH]c2ccccc12)N1CCCN(C(C)C)CC1 (stereo partly drawn) [TKB063 (25)]
CC50 at 5 days [1, 2]: > 50 µM
pEC50 (HIV-1 (NL4-3 strain); [3]): 5.35
pEC50 (HIV-1 (NL4-3 strain); [4]): 5.32
pEC50 (HIV-1 (NL4-3 strain); [5]): 5.02

CSCCC(C(=O)N1CCNCC1c1c[nH]c2ccccc12)N1CCCN(C(C)C)CC1 (stereo not drawn) [TKB063A (25A)]
CC50 at 5 days ([1]; Table 3, 50% reduction of the viability of MT-4 cells, read-out: CC50): > 50 µM
pEC50 (HIV-1 (NL4-3 strain); [4]): 5.30

CSCCC(C(=O)N1CCNCC1c1c[nH]c2ccccc12)N1CCCN(C(C)C)CC1 (stereo not drawn) [TKB063B (25B)]
CC50 (MT-4 cells): > 50 µM
pEC50 (HIV-1 (NL4-3 strain); Table 3): 5.13

CCN1CCCN([C@H](CCSC)C(=O)N2CCNCC2c2c[nH]c3ccccc23)CC1 (stereo partly drawn) [TON01 (36)]
CC50 at 5 days [1, 6]: > 50 µM
pEC50 (HIV-1 (NL4-3 strain); [5]): 4.70

CCCN1CCCN([C@H](CCSC)C(=O)N2CCNCC2c2c[nH]c3ccccc23)CC1 (stereo partly drawn) [TON02 (37)]
CC50 at 5 days [1, 6]: > 50 µM
pEC50 (HIV-1 (NL4-3 strain); [5]): 5.10

CCC(C)N1CCCN([C@H](CCSC)C(=O)N2CCNCC2c2c[nH]c3ccccc23)CC1 (stereo partly drawn) [TON03 (38)]
CC50 at 5 days [1, 6]: > 50 µM
pEC50 (HIV-1 (NL4-3 strain); [5]): 5.20

Enfuvirtide (T-20): Peptide, fusion inhibitor
IC50/EC50 (HIV; Fusion inhibitor, ref [66]): 0.003 µM

Ibalizumab: Antibody, CD4 binding inhibitor
IC50/EC50 (HIV; CD4 binding inhibitor, ref [68]): 0.00029 µM

Maraviroc
IC90/EC90 (HIV; CCR5 antagonist, ref [65]): (1.0 nM)
